Columns and labels:
[1] = tested on: Jun N-terminal kinase (JNK); assay: JNK phosphorylation, FACE-JNK ELISA in fibroblasts; type: cell-based, rat; conditions: diabetic, TNF-α- or dexamethasone-exposed cells; EUK-134
Procedure: (§1) Primary dermal fibroblasts were obtained from dorsal skin of female Goto Kakizaki (GK, age 12-15 months) rats, a model for non-obese type 2 diabetes, and their Wistar control counterparts. After sterilization in povidine solution, rat skin was washed in sterile water and rinsed in 70% ethanol in PBS. Epidermis and dermis were separated following overnight incubation in 0.25% trypsine/EDTA at 4 C. Dermis was cut into small pieces and incubated in Dulbecco's modified Eagle medium (DMEM; Invitrogen) containing collagenase (250 U/ml; Sigma) for thirty min at 37 C in 5% CO2 with constant agitation. The sections were triturated vigorously to release fibroblasts, which were collected by centrifugation. […]
(§2) A hypercortisolemic state was mimicked by exposing control fibroblasts to dexamethasone (Dexa, Sigma) administered at 20 ng/ml every other day for a duration of 8 days. […] The concentration of IGF-1 (50 ng/ml, Peprotech) was determined by prior dose response experiment.
Activation of Akt and JNK was analyzed in fixed fibroblasts using FACE-Akt and FACE-JNK (both from Active Motife). […] Labeling with antibodies was conducted according to the manufacturer's protocol and the resulting phosphoantibody signal was calculated after correction for number of cells and total Akt or JNK levels in each sample. […]

[2] = tested on: cultured fibroblasts; assay: WST-based cell viability of cultured fibroblasts; set-up: species or system rat; conditions: EUK 100 μM, LA 500 μM
[3] = tested on: COL1A1 mRNA; assay: Real time PCR of COL1A1 mRNA in fibroblasts; type: cell-based, rat; conditions: diabetic, TNF-α- or dexamethasone-exposed cells; EUK-134
Procedure: (§3) Primary dermal fibroblasts were obtained from dorsal skin of female Goto Kakizaki (GK, age 12-15 months) rats, a model for non-obese type 2 diabetes, and their Wistar control counterparts. After sterilization in povidine solution, rat skin was washed in sterile water and rinsed in 70% ethanol in PBS. Epidermis and dermis were separated following overnight incubation in 0.25% trypsine/EDTA at 4 C. Dermis was cut into small pieces and incubated in Dulbecco's modified Eagle medium (DMEM; Invitrogen) containing collagenase (250 U/ml; Sigma) for thirty min at 37 C in 5% CO2 with constant agitation. The sections were triturated vigorously to release fibroblasts, which were collected by centrifugation. The cell pellet was washed two times with PBS, re-suspended in complete medium (DMEM supplemented with 10% fetal calf serum, penicillin (100 U/ml), streptomycin (100 μg/ml)), 2 mM L-glutamine and 10 mM HEPES) and then cultured under a standard condition.
as §2, with “days. Similarly, the state of low-grade inflammation in fibroblasts was recapitulated experimentally by exposing these cells to TNF-α (4 ng/ml every day for 4 days).” for “days.”, “experiment. […]” for “experiment.”

[4] = tested on: IRS-1; assay: IRS-1 Ser307 phosphorylation in dermal fibroblasts; type: cell-based, rat; conditions: diabetic, TNF-α- or dexamethasone-exposed cells; EUK-134
Procedure: as §1, §2
(§4) Levels/activities of key intracellular molecules in the IGF-1 signaling cascade including IRS-1, IRS-1 Tyr-p-612, PI3K-p85α, IRS-1 Ser-p (307), PI3K, Akt, p-Akt, INK and p-JNK were assessed using western blotting/immunoprecipitation and commercially available ELISA-based assays. […]

[5] = tested on: Akt; assay: Akt phosphorylation, western blotting in dermal fibroblasts; type: cell-based, rat; conditions: diabetic, TNF-α- or dexamethasone-exposed cells; EUK-134; western blot
Procedure: as §1, §2, §4

[6] = Rapid insulin sensitivity test (RIST) with IGF-1 instead of insulin; type: in vivo, rat; conditions: diabetic/hypercortisolemic rats, chronic administration of antioxidant
Procedure: All animal procedures were performed in accordance with the NIH Guidance for the Care and Use of Laboratory Animals. The current study used, respectively the GK and Dexamethasone-treated rats as models for diabetes and hypercortisolemia. Dexamethasone was administered subcutaneously at a dose of 2.5 μg/kg body weight in the morning (8:00 AM) and in the evening (8:00 PM) for a duration of four weeks before wounding and this form of therapy continued during the course of healing. […] Weight and age-matched female Wistar rats (Kuwait University breeding colony) served as the corresponding controls. All of the animals were maintained under standard conditions with 12 hours on/off light cycle, commercial diet, and water ad libitum. GK rats destined for wounding were initially matched with regard to body weight (e.g., 230 to 250 g), and plasma levels of glucose, free fatty acids and insulin. These indices are commonly used to reflect the severity of the diabetic state.
Animals used for IGF-1 sensitivity (n=6/group) and wound healing (n=8) studies were partitioned into five study groups including control, diabetic, hypercortisolemic, diabetic+EUK and hypercortisolemic+EUK. The EUK-134 was administered for duration of four weeks before wound induction and it continued during the course of healing.
IGF-1 sensitivity in control, diabetic and hypercortisolemic animals was determined using the rapid insulin sensitivity test (RIST) with IGF-1 (200 μg/kg BW) infused instead of insulin. The RIST index is the amount of glucose per kg body weight required to maintain euglycemia following a bolus of insulin (50 mU/kg BW).

[7] = tested on: PI3K-p85α / IRS-1; assay: Co-precipitation of PI3K p85α with IRS-1 in dermal fibroblasts; type: cell-based, rat; conditions: diabetic, TNF-α- or dexamethasone-exposed fibroblasts; EUK-134
Procedure: as §1, §2, §4

[8] = tested on: dermal fibroblasts; assay: Collagen gel contraction assay with fibroblasts; type: cell-based, rat; conditions: diabetic, TNF-α- or dexamethasone-exposed cells; EUK-134
Procedure: as §3, §2
The ability of fibroblasts to migrate in response to IGF-I in each of our models of oxidative stress-induced IGF-1 resistance was also evaluated. […]

COc1cccc(C=NCCN=Cc2cccc(OC)c2[O-])c1[O-].[Cl-].[Mn+3] [EUK-134]
basal JNK activity (phosphorylation) [1]: returns its phosphorylation state to approximate levels found in normal fibroblasts
effect on cell viability (WST-based technique) [2]: minimum effect on cell viability
collagen mRNA synthesis [3]: returns it to approximately control levels
phosphorylation of IRS-1 at Ser307 [4]: diminishes Ser307 phosphorylation to levels comparable to the basal level in normal fibroblasts
Akt phosphorylation in response to IGF-1 [5]: partially restored
improvement of glucose metabolism in response to bolus injection of IGF-1 [6]: about 20%
association of PI3K p85α with IRS-1 in response to IGF-1 [7]: restores this association
contractility in collagen gel assay [8]: partially restores this contractility to control levels
